The data set in a line: gradient 5% acetonitrile 3 min, to 50% in 2 min, to 85% in 15 min, held 3 min, 100 µL/min. As to conditions: column: Zorbax Extend-C18 2.1 x 50 mm; eluents: water / acetonitrile, 0.1% formic acid. A digest of the protocol:
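A Zorbax Extend-C18 column (2.1 × 50 mm, 1.8 μm) run at 100 μL/min with water and acetonitrile, both containing 0.1% formic acid, separated mixtures of ~100 pure standards. The HPLC was coupled to a quadrupole time-of-flight mass spectrometer operated in positive and negative ionization mode, with dead and dwell volumes of 40 μL and 900 μL. Each retention time was taken from a computationally picked adduct peak that was then manually inspected.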
The compound `COc1ccc2cc(-c3nc(-c4ccc(S(C)=O)cc4)[nH]c3-c3ccncc3)ccc2c1` (stereo unspecified) yielded an RP-LC retention time of 682 s. Under `COc1ccc(-c2cc(C(F)(F)F)n3nc(C(=O)O)c(Cl)c3n2)cc1OC` stands 855 s; under `CC(C)NC(=O)c1ccc(OCC2CCN(C(=O)c3ccc(F)cc3)CC2)cc1`, 826 s; under `Cc1nc(-c2cnccn2)nc2c1CCC(=O)N2Cc1ccc(F)cc1`, 732 s. Consider `Cn1nccc1-c1cccc(-c2noc(-c3cccc(C#N)c3)n2)c1`, for which the RP-LC retention time was 1030 s.

As for `O=C(c1ccncn1)N1CC(F)(F)C[C@H]1COc1ccc2c(c1)CCC2`, the RP-LC retention time was 1020 s. Under `O=S(=O)(c1ccc(F)cc1F)N1CCc2nc(-c3ccc(F)cc3)ncc2C1` stands 1110 s; under `O=C(c1csc(-c2ccc(N3CCCC3)nc2)n1)N1CCCC1`, 596 s; under `O=S(=O)(c1cc(-c2cc(C(F)(F)F)on2)cs1)N(Cc1ccco1)C1CCCCC1`, 1300 s. On to `COc1cc2nccc(Oc3ccc(NC(=O)NC4CC4)c(Cl)c3)c2cc1C(N)=O`, for which the RP-LC retention time was 633 s. Take `O=C1CCCc2cc(S(=O)(=O)NCC3CCN(Cc4ccc(F)cc4)CC3)ccc2N1`: the RP-LC retention time is 603 s.

Consider `CN1CCN(CCCNC(=O)CN2C(=O)CCn3nc(-c4cn(C)c5ccccc45)cc32)CC1`, for which the RP-LC retention time was 587 s. Consider `CCC(=O)Nc1ccc(-n2cnc(C(=O)N3CCN(c4ccc(OC)cc4)CC3)c2)nc1`, for which the RP-LC retention time amounted to 653 s.

The compound `Cc1sc(-n2c(C)c3c(C)nnc(C)c3c2C)nc1-c1ccc(Br)cc1` returned an RP-LC retention time of 782 s.

In the case of `CCc1nn2c(CNS(=O)(=O)Cc3cccc(Cl)c3)c(-c3ccccc3)nc2s1`, the RP-LC retention time was 1010 s. Under `CC(C)c1ccc(NC(=O)C2(C)CCCCC(=O)N2)cc1` (stereo unspecified) stands 786 s; under `c1csc(-c2csc(CN3CCNCC3)n2)c1`, 548 s. The same measure for `Cc1ccc(NC(=O)Cn2cnc3nc(N4CCCC(C(=O)NC5CC5)C4)sc3c2=O)cc1C` (stereo unspecified): 693 s; for `Cn1cc(CN2CCCC(COc3ccccc3C(=O)N3CCOCC3)C2)c2ccccc21` (stereo unspecified): 664 s; for `Cc1csc(NC(=O)CSc2nnc(NC(=O)c3cc(C)on3)s2)n1`: 692 s. Under `CCOC(=O)C1CCN(S(=O)(=O)c2cc3n(c2)CCCN(CC)C3=O)CC1` stands 679 s. Compound `COc1ccccc1-c1noc(C2CCCN2C(=O)c2sc(C)nc2C)n1` (stereo unspecified) yielded an RP-LC retention time of 750 s. Under `CCN1C(=O)c2cccc3c(NC(=O)Cc4cccs4)ccc1c23` stands 718 s; under `Cc1ccc(N2CCN(C(=O)c3csc(C(=O)NC4CC4)n3)CC2)cc1`, 800 s. Under `CCCCNC(=O)Cn1c(=O)c2cccn2c2ccc(F)cc21` stands 773 s. The same measure for `Cc1sc(-c2cc(C(F)(F)F)on2)cc1S(=O)(=O)NCc1ccc(N(C)C)cc1`: 982 s. Consider `CCOC(=O)c1[nH]c(C)c(CN(Cc2ccccc2)C(=O)c2ccco2)c1C`, for which the RP-LC retention time stood at 946 s. For the compound `CCN1CCN(c2cc(C)c3cc(NC(=S)NC4CCCC4)ccc3n2)CC1`, the RP-LC retention time was 572 s. `CC1=C(c2ccccc2)S(=O)(=O)N=C1N1CCC(NC(=O)NCC(C)C)CC1` returned an RP-LC retention time of 790 s. The same measure for `CCc1cccc(NC(=O)N2CCc3cn(CCOC)c4cccc(c34)C2)c1`: 1030 s; for `Cc1nc2nc(-c3ccc(C(C)(C)C)cc3)nn2c(C)c1CC(=O)NC(C)C`: 911 s; for `Clc1ccccc1C1Cn2cnc(-c3nc(-c4ccncc4)no3)c2CO1` (stereo unspecified): 915 s.

The compound `Cc1cc(=O)n(CC(=O)NCc2ccccc2)c(N2CCCC2)n1` had an RP-LC retention time of 606 s. Compound `COCCn1cc(C(=O)N2CCc3ccccc32)c2nn(-c3ccccc3)c(=O)c-2c1` registered an RP-LC retention time of 789 s. Under `COC(=O)c1cccc(NC(=O)NC(C)C(=O)N2CCc3ccccc32)c1` (stereo unspecified) stands 792 s. As for `CCCN(CC1CCOC1)C(=O)Nc1cccc(SC)c1` (stereo unspecified), the RP-LC retention time turned out to be 831 s.

Compound `CN(C)CCNC(=O)c1nc(N2CCSCC2)c2cnn(C)c2n1` gave an RP-LC retention time of 560 s.

For `CC(C)c1ccc(-c2nc(C3CC(=O)N(c4ccc(F)cc4)C3)no2)cc1` (stereo unspecified), the RP-LC retention time came out at 1180 s. Regarding `CC(=O)NCC(=O)N1c2ccccc2CC1c1nc(C(C)C)no1` (stereo unspecified), the RP-LC retention time is 724 s. `CS(=O)(=O)N1CCCC1C(=O)Nc1ccccc1` (stereo unspecified): the RP-LC retention time was 690 s.

As to `CCN1C(=O)COc2ccc(-c3nc(NC(=O)c4cccc(OC)c4)sc3C)cc21`, the RP-LC retention time amounted to 1040 s. With `CCOC(=O)c1c(C)[nH]c(CCC(=O)NCCN2CCCCCC2)c1C`, the RP-LC retention time stood at 621 s.

The compound `CCOc1cccc(-c2noc(Cn3ccnc3C)n2)c1` yielded an RP-LC retention time of 647 s.

Regarding `O=c1ccn(-c2ccc(Cl)cc2)nc1-c1nc(-c2cccc(Br)c2)no1`, the RP-LC retention time came to 1080 s. The same measure for `Cc1cccc(Cn2nc3ccc(S(=O)(=O)N4CCCC4)cn3c2=O)c1`: 881 s; for `COc1nccnc1N1CCC(NC(=O)c2ccsc2)C1` (stereo unspecified): 645 s; for `CCn1cc(CCNC(=O)c2ccccc2Br)c2cccnc21`: 700 s. With `COc1ccc(Cl)cc1NC(=O)N(C)CC1CCOCC1`, the RP-LC retention time is 816 s. Under `CCc1ccc(C(=O)N2CCC(n3c(-c4ccoc4)nc4cccnc43)C2)cc1` (stereo unspecified) stands 809 s; under `O=C(O)c1cc(NS(=O)(=O)c2cccc(F)c2)ccc1N1CCCC(CN2CCCC2)C1` (stereo unspecified), 594 s. `COc1ccccc1NC(=O)C(=O)c1ccc[nH]1`: the RP-LC retention time was determined as 908 s. Under `CN1C(=O)[C@H]2CN(Cc3ccc(F)c(F)c3)C[C@H]2C1=O` stands 590 s; under `Cc1nn(CC(=O)NCc2ccco2)c(=O)c2c(-n3cccc3)n(-c3ccccc3)nc12`, 881 s; under `COc1cccc(-n2c(=O)c3sccc3n(Cc3nc(-c4ccc(C)c(C)c4)no3)c2=O)c1`, 1160 s. With `CCc1nc(-c2csc(S(=O)(=O)N3CCCC(C(=O)NCc4ccccc4C)C3)c2)no1` (stereo unspecified), the RP-LC retention time came to 1010 s. The compound `CCN(CC)c1nc(-c2ccc([N+](=O)[O-])cc2)nc2ccccc12` displayed an RP-LC retention time of 771 s. The compound `Clc1ccc(OCc2nc(-c3ccc4c(c3)ncn4CCN3CCCC3)no2)cc1` came in with an RP-LC retention time of 690 s.

In the case of `CC(C(=O)N1CCN(c2ccccn2)CC1)n1ccc2cc(S(=O)(=O)N3CCCC3)ccc21` (stereo unspecified), the RP-LC retention time is 660 s. In turn, `Cc1ccc(Cl)cc1NC(=O)N1CCC(n2cnc3cccnc32)CC1` yielded an RP-LC retention time of 682 s.

`CC(C)C(=O)NCC(c1ccccc1Cl)c1c[nH]c2ccccc12` (stereo unspecified) yielded an RP-LC retention time of 929 s. For the compound `CCC1(O)CCC12CCN(C(=O)c1ccsc1)CC2` (stereo unspecified), the RP-LC retention time came out at 716 s. In turn, `COc1cccc(CNC(=O)C2CCN(CC(=O)Nc3ccc(C)cc3)CC2)c1` showed an RP-LC retention time of 582 s. Take `CCn1cc(-c2nc(C)c(C(=O)Nc3ccc(OC)cc3OC)s2)c2cccnc21`: the RP-LC retention time was determined as 1050 s. Turning to `CCCCOc1ccc(-c2csc(NC(=O)c3cc4cccc(OC)c4oc3=O)n2)cc1`, the RP-LC retention time came out at 897 s. Under `CCN(CC)S(=O)(=O)c1cccc(-c2nnc(-c3ccc(OC)c(OC)c3)o2)c1` stands 950 s.

On to `Cc1cccc(NC(=O)Nc2cccc(-c3ccc(N4CCOCC4)nn3)c2)c1`, for which the RP-LC retention time was 714 s. The same measure for `CCn1c(CCc2ccccc2NS(=O)(=O)c2c(C)n[nH]c2C)nc2ccccc21`: 630 s; for `O=C(OCCCNc1nc(-c2ccc(Cl)cc2)nc2ccccc12)c1cccs1`: 804 s; for `CN(CC1CCOC1)C(=O)Nc1cccc(F)c1` (stereo unspecified): 660 s.

On to `Fc1ccc(-c2ccc(CNCCCn3ccnc3)o2)cc1Cl`, for which the RP-LC retention time stood at 585 s. The same measure for `COC(=O)c1ccc(-c2nc3cnccn3c2Nc2cccc(C(F)(F)F)c2)cc1`: 945 s; for `CCNc1nc(C)cc(N2CCN(S(=O)(=O)c3cccc(C)c3)CC2)n1`: 708 s; for `CNC(=O)c1cc(=O)n(CC(=O)Nc2ccc3c(c2)OCO3)c2ccccc12`: 658 s. Turning to `O=C(Cn1c(=O)c2cccn2c2ccc(F)cc21)NCCCN1CCCCCC1`, the RP-LC retention time amounted to 627 s. The same measure for `CCCc1nnc(NC(=O)CSc2ccc(NC(=O)C3CC3)nn2)s1`: 694 s; for `Cc1cc(=O)n(CC(=O)N2CCN(c3ccc(-c4ccccn4)nn3)CC2)cn1`: 531 s; for `Cn1cc(C2=CCN(C(=O)NC(C)(C)C)CC2)c2cccnc21`: 604 s. Turning to `Cc1noc2ncn(CC(=O)NCCCc3ccccc3)c(=O)c12`, the RP-LC retention time was found to be 764 s.

`COCc1c(C(=O)O)nnn1-c1ccc(C)c(F)c1` returned an RP-LC retention time of 741 s. Under `COc1ccc(OC)c(NC(=O)CN2CC=C(c3cnn(C)c3)CC2)c1` stands 597 s; under `CC(=O)Nc1nnc(SCc2cc(=O)c(OC(=O)c3ccccc3Cl)co2)s1`, 699 s.

The record behind these values is the METLIN SMRT retention time set (Domingo-Almenara et al. 2019).
